Legend:
Assay type in all cases: in vivo
[1] = test system: Amaranthus retoflexus (AMARE); assay: B2 Post-Emergence Efficacy—Test 2; conditions: post-emergence application, 250 g/ha, evaluated after 13 days (Test 2)
Method: (§1) B2 Post-Emergence Efficacy—Test 2 Seeds of a variety of test species are sown in standard soil in pots:—Solanum nigrum (SOLNI), Amaranthus retoflexus (AMARE), Setaria faberi (SETFA), Echinochloa crus-galli (ECHCG), Ipomoea hederacea (IPOHE), Lolium perenne (LOLPE). After 8 days cultivation (post-emergence) under controlled conditions in a glasshouse (at 24/16° C., day/night; 14 hours light; 65% humidity), the plants are sprayed with an aqueous spray solution derived from the formulation of the technical active ingredient in acetone/water (50:50) solution containing 0.5% Tween 20 (polyoxyethylene sorbitan monolaurate, CAS RN 9005-64-5). Compounds are applied at 250 g/ha. The test plants are then grown in a glasshouse under controlled conditions in a glasshouse (at 24/16° C., day/night; 14 hours light; 65% humidity) and watered twice daily. After 13 days, the test is evaluated for the percentage damage caused to the plant. The biological activities are assessed on a five point scale (5=80-100%; 4=60-79%; 3=40-59%; 2=20-39%; 1=0-19%). A blank value in the table is indicative that the compound was not tested on that species.

[2] = test system: Echinochloa crus-galli (ECHCG); assay: B2 Post-Emergence Efficacy—Test 2; conditions: post-emergence application, 250 g/ha, evaluated after 13 days (Test 2)
Method: as §1

[3] = test system: Ipomoea hederacea (IPOHE); assay: B2 Post-Emergence Efficacy—Test 2; conditions: post-emergence application, 250 g/ha, evaluated after 13 days (Test 2)
Method: as §1

[4] = test system: Lolium perenne (LOLPE); assay: B2 Post-Emergence Efficacy—Test 2; conditions: post-emergence application, 250 g/ha, evaluated after 13 days (Test 2)
Method: as §1

[5] = test system: Setaria faberi (SETFA); assay: B2 Post-Emergence Efficacy—Test 2; conditions: post-emergence application, 250 g/ha, evaluated after 13 days (Test 2)
Method: as §1

[6] = test system: Solanum nigrum (SOLNI); assay: B2 Post-Emergence Efficacy—Test 2; conditions: post-emergence application, 250 g/ha, evaluated after 13 days (Test 2)
Method: as §1

[7] = test system: Amaranthus retoflexus (AMARE); assay: B5 Pre-Emergence Efficacy—Test 2; conditions: 250 g/ha, evaluated after 13 days
Method: (§2) B5 Pre-Emergence Efficacy—Test 2 Seeds of a variety of test species were sown in standard soil in pots: Solanum nigrum (SOLNI), Amaranthus retoflexus (AMARE), Setaria faberi (SETFA), Echinochloa crus-galli (ECHCG), Ipomoea hederacea (IPOHE), Lolium perenne (LOLPE). After cultivation for one day (pre-emergence) under controlled conditions in a glasshouse (at 24/16° C., day/night; 14 hours light; 65% humidity), the plants were sprayed with an aqueous spray solution derived from the formulation of the technical active ingredient in acetone/water (50:50) solution containing 0.5% Tween 20 (polyoxyethelyene sorbitan monolaurate, CAS RN 9005-64-5). Compounds are applied at 250 g/ha. The test plants were then grown in a glasshouse under controlled conditions (at 24/16° C., day/night; 14 hours light; 65% humidity) and watered twice daily. After 13 days, the test is evaluated for the percentage damage caused to the plant. The biological activities are assessed on a five point scale (5=80-100%; 4=60-79%; 3=40-59%; 2=20-39%; 1=0-19%). A blank value in the table is indicative that the compound was not tested on that species.

[8] = test system: Solanum nigrum (SOLNI); assay: B5 Pre-Emergence Efficacy—Test 2; conditions: 250 g/ha, evaluated after 13 days
Method: as §2

[9] = test system: Echinochloa crus-galli (ECHCG); assay: B5 Pre-Emergence Efficacy—Test 2; design: key: 5-point scale: 5=80-100%, 4=60-79%, 3=40-59%, 2=20-39%, 1=0-19% damage; conditions: 250 g/ha, evaluated after 13 days
Method: as §2

[10] = test system: Ipomoea hederacea (IPOHE); assay: B5 Pre-Emergence Efficacy—Test 2; design: key: 5-point scale: 5=80-100%, 4=60-79%, 3=40-59%, 2=20-39%, 1=0-19% damage; conditions: 250 g/ha, evaluated after 13 days
Method: as §2

[11] = test system: Lolium perenne (LOLPE); assay: B5 Pre-Emergence Efficacy—Test 2; design: key: 5-point scale: 5=80-100%, 4=60-79%, 3=40-59%, 2=20-39%, 1=0-19% damage; conditions: 250 g/ha, evaluated after 13 days
Method: as §2

[12] = test system: Setaria faberi (SETFA); assay: B5 Pre-Emergence Efficacy—Test 2; design: key: 5-point scale: 5=80-100%, 4=60-79%, 3=40-59%, 2=20-39%, 1=0-19% damage; conditions: 250 g/ha, evaluated after 13 days
Method: as §2

Row | SMILES | percentage damage caused to the plant, five point scale, AMARE [1] | percentage damage caused to the plant, five point scale, ECHCG [2] | percentage damage caused to the plant, five point scale, IPOHE [3] | percentage damage caused to the plant, five point scale, LOLPE [4] | percentage damage caused to the plant, five point scale, SETFA [5] | percentage damage caused to the plant, five point scale, SOLNI [6] | Control of weed species after pre-emergence application, AMARE (percentage damage, five point scale) [7] | Control of weed species after pre-emergence application, SOLNI (percentage damage, five point scale) [8] | Control of weed species after pre-emergence application, ECHCG (percentage damage, five point scale) [9] | Control of weed species after pre-emergence application, IPOHE (percentage damage, five point scale) [10] | Control of weed species after pre-emergence application, LOLPE (percentage damage, five point scale) [11] | Control of weed species after pre-emergence application, SETFA (percentage damage, five point scale) [12]
1 | CC(=O)Nc1ccc(CCc2c(Cl)ccc(F)c2-c2c(O)c(C)nn(C)c2=O)cc1 [Compound A-1.024] | 5 (5=80-100%) | 4 (4=60-79%) | 5 (5=80-100%) | 5 (5=80-100%) | 5 (5=80-100%) | 5 (5=80-100%) | 5 (5=80-100%) | 5 (5=80-100%) | 2 (2=20-39%) | 0 | 4 (4=60-79%) | 5 (5=80-100%)
2 | Cc1nn(C)c(=O)c(-c2c(F)ccc(Cl)c2CCc2ccc(S(=O)(=O)N(C)C)cc2)c1O [Compound A-1.025] | 5 (5=80-100%) | 5 (5=80-100%) | 5 (5=80-100%) | 5 (5=80-100%) | 5 (5=80-100%) | 5 (5=80-100%) | 5 (5=80-100%) | 5 (5=80-100%) | 5 (5=80-100%) | 1 (1=0-19%) | 4 (4=60-79%) | 5 (5=80-100%)
3 | Cc1nn(C)c(=O)c(-c2c(F)ccc(Cl)c2CCc2ccc(C(C)(C)C)cc2)c1O [Compound A-1.026] | 4 (4=60-79%) | 0 | 0 | 1 (1=0-19%) | 2 (2=20-39%) | 4 (4=60-79%) | 0 | 0 | 0 | 0 | 0 | 0
4 | Cc1nn(C)c(=O)c(-c2c(F)ccc(Cl)c2CCc2ccc(-c3ccccc3)cc2)c1O [Compound A-1.027, 4-[3-chloro-6-fluoro-2-[2-(4-phenylphenyl)ethyl]phenyl]-5-hydroxy-2,6-dimethyl-pyridazin-3-one] | 5 (5=80-100%) | 5 (5=80-100%) | 4 (4=60-79%) | 5 (5=80-100%) | 5 (5=80-100%) | 4 (4=60-79%) | 5 (5=80-100%) | 4 (4=60-79%) | 1 (1=0-19%) | 4 (4=60-79%) | 2 (2=20-39%) | 3 (3=40-59%)
5 | CCN(C)C(=O)c1ccc(CCc2c(Cl)ccc(F)c2-c2c(O)c(C)nn(C)c2=O)cc1F [Compound A-1.028, 4-[2-[6-chloro-3-fluoro-2-(5-hydroxy-2,6-dimethyl-3-oxo-pyridazin-4-yl)phenyl]ethyl]-N-ethyl-2-fluoro-N-methyl-benzamide] | 5 (5=80-100%) | 5 (5=80-100%) | 5 (5=80-100%) | 5 (5=80-100%) | 5 (5=80-100%) | 5 (5=80-100%) | 5 (5=80-100%) | 5 (5=80-100%) | 4 (4=60-79%) | 5 (5=80-100%) | 5 (5=80-100%) | 5 (5=80-100%)
6 | Cc1nn(C)c(=O)c(-c2c(F)ccc(Cl)c2CCc2ccccc2C#N)c1O [Compound A-1.029] | 4 (4=60-79%) | 2 (2=20-39%) | 5 (5=80-100%) | 4 (4=60-79%) | 4 (4=60-79%) | 5 (5=80-100%) | 3 (3=40-59%) | 5 (5=80-100%) | 5 (5=80-100%) | 1 (1=0-19%) | 2 (2=20-39%) | 1 (1=0-19%)
7 | Cc1nn(C)c(=O)c(-c2c(F)ccc(Cl)c2CCc2cccc(C#N)c2)c1O [Compound A-1.030] | 4 (4=60-79%) | 4 (4=60-79%) | 5 (5=80-100%) | 5 (5=80-100%) | 4 (4=60-79%) | 5 (5=80-100%) | 5 (5=80-100%) | 5 (5=80-100%) | 5 (5=80-100%) | 0 | 4 (4=60-79%) | 5 (5=80-100%)
8 | Cc1cc(CCc2c(Cl)ccc(F)c2-c2c(O)c(C)nn(C)c2=O)ccc1N [Compound A-1.031] | 5 (5=80-100%) | 4 (4=60-79%) | 4 (4=60-79%) | 4 (4=60-79%) | 4 (4=60-79%) | 5 (5=80-100%) | 3 (3=40-59%) | 2 (2=20-39%) | 2 (2=20-39%) | 1 (1=0-19%) | 1 (1=0-19%) | 1 (1=0-19%)

Reference: US12540120B2, “Herbicidal compounds” (SYNGENTA CROP PROTECTION AG, priority 2019, dated 2026)
